Results as given in patent US20060069132A1, “Azolecarboxamide herbicides” (priority 2004, published 2006).

Experiments:
yellow nutsedge = assay: Test C pre-/postemergence herbicide test; type: in vivo, Cyperus esculentus
Excerpt: (§1) Seeds of plant species selected from bermudagrass (Cynodon dactylon (L.) Pers.), Surinam grass (Urochloa decumbens (Staph) R. D. Webster, previously named Brachiaria decumbens Stapf), cocklebur (Xanthium strumarium L.), corn (Zea mays L.), large crabgrass (Digitaria sanguinalis (L.) Scop.), woolly cupgrass (Eriochloa villosa (Thunb.) Kunth), giant foxtail (Setaria faberi Herrm.), goosegrass (Eleusine indica (L.) Gaertn.), johnsongrass (Sorghum halepense (L.) Pers.), kochia (Kochia scoparia (L.) Schrad.), lambsquarters (Chenopodium album L.), morningglory (Ipomoea coccinea L.), eastern black nightshade (Solanum ptycanthum Dunal), yellow nutsedge (Cyperus esculentus L.), pigweed (Amaranthus retroflexus L.), common ragweed (Ambrosia elatior L.), soybean (Glycine max (L.) Merr.), common (oilseed) sunflower (Helianthus annuus L.) and velvetleaf (Abutilon theophrasti Medik.) were planted and treated preemergence with test chemicals formulated in a non-phytotoxic solvent mixture which included a surfactant.
(§2) At the same time, plants selected from these crop and weed species and also winter barley (Hordeum vulgare L.), blackgrass (Alopecurus myosuroides Huds.), canarygrass (Phalaris minor Retz.), chickweed (Stellaria media (L.) Vill.), downy bromegrass (Bromus tectorum L.), green foxtail (Setaria viridis (L.) Beauv.), Italian ryegrass (Lolium multiflorum Lam.), wheat (Triticum aestivum L.), wild oat (Avenafatua L.) and windgrass (Apera spica-venti (L.) Beauv.) were treated with postemergence applications of some of the test chemicals formulated in the same manner. Plants ranged in height from 2 to 18 cm (1- to 4-leaf stage) for postemergence treatments. Plant species in the flooded paddy test consisted of rice (Oryza sativa), smallflower umbrella sedge (Cyperus difformis L.), ducksalad (Heteranthera limosa (Sw.) Willd.) and barnyardgrass (Echinochloa crus-galli (L.) Beauv.) grown to the 2-leaf stage for testing. Treated plants and controls were maintained in a greenhouse for 12 to 14 days, after which time all species were compared to controls and visually evaluated. Plant response ratings, summarized in Table C, are based on a scale of 0 to 100 where 0 is no effect and 100 is complete control. A dash (-) response means no test result.

woolly cupgrass = assay: Test C pre-/postemergence herbicide test; type: in vivo, Eriochloa villosa
Excerpt: as §1, §2

giant foxtail = assay: Test C pre-/postemergence herbicide test; type: in vivo, Setaria faberi
Excerpt: as §1, §2

velvetleaf = assay: Test A pre-/postemergence herbicide test; type: in vivo, Abutilon theophrasti
Outline: (§3)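 Greenhouse injury scoring (0–100, complete control = 100) at approximately ten days follows simultaneous pre- and postemergence application. Soil received a directed spray after seeding; seedlings of 2–10 cm at the one- to two-leaf stage were sprayed to runoff.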

corn = assay: Test C pre-/postemergence herbicide test; type: in vivo, Zea mays
Excerpt: as §1, §2

morningglory [1] = assay: Test C pre-/postemergence herbicide test; type: in vivo, Ipomoea coccinea; parameters: key to Plant response rating, Morningglory: 0 = no effect, 100 = complete control
Excerpt: as §1, §2

Surinam grass = assay: Test C pre-/postemergence herbicide test; type: in vivo, Urochloa decumbens
Excerpt: as §1, §2

morningglory [2] = assay: Test A pre-/postemergence herbicide test; type: in vivo, Ipomoea spp.
Outline: as §3

lambsquarters = assay: Test C pre-/postemergence herbicide test; type: in vivo, Chenopodium album
Excerpt: as §1, §2

[3] = test system: common (oilseed) sunflower; assay: Test C pre-/postemergence herbicide test; type: in vivo, Helianthus annuus; settings: preemergence
Excerpt: as §1, §2

[4] = Postemergence, 500 g ai/ha, scale 0 to 100
[5] = Postemergence, 250 g ai/ha, scale 0 to 100, 0 no effect, 100 complete control
[6] = postemergence, 125 g ai/ha, scale 0 to 100
[7] = postemergence, 62 g ai/ha, scale 0 to 100
[8] = Postemergence, 500 g ai/ha, 0 to 100 scale, 0 no effect, 100 complete control
[9] = Postemergence, 2000 g ai/ha, 0 to 100 scale, 0 no effect, 100 complete control
[10] = Preemergence, 500 g ai/ha, visual rating, 0 to 100 scale (0 no effect, 100 complete control)
[11] = 62 g ai/ha, preemergence, scale 0 to 100
[12] = 500 g ai/ha, scale 0 to 100 (0 no effect, 100 complete control), visual, 12 to 14 days, preemergence
[13] = 250 g ai/ha, scale 0-100, preemergence

For CCCCOC(=O)c1cccc(NC(=O)c2cc(C(C)(C)C)nn2CC)c1 [Compound 86], the “Nutsedge, Yellow plant response rating” value (yellow nutsedge; [4]) was 30, the “Plant response rating, Nutsedge, Yellow” value (yellow nutsedge; [5]) was 10 and the “Plant response rating, Nutsedge, Yellow” value (yellow nutsedge; [6]) was 5. For the same compound, the “Plant response rating, Nutsedge, Yellow” value (yellow nutsedge; [7]) was 0, the “Cupgrass, Woolly plant response rating” value (woolly cupgrass; [4]) was 85 and the “Plant response rating, Cupgrass, Woolly” value (woolly cupgrass; [5]) was 80. For the same compound, the “Plant response rating, Cupgrass, Woolly” value (woolly cupgrass; [6]) was 70, the “Plant response rating, Cupgrass, Woolly” value (woolly cupgrass; [7]) was 50 and the “Foxtail, Giant plant response rating” value (giant foxtail; [4]) was 70. The “Plant response rating, Foxtail, Giant” value (giant foxtail; [5]) was 50, the “Plant response rating, Foxtail, Giant” value (giant foxtail; [6]) was 20 and the “Plant response rating, Foxtail, Giant” value (giant foxtail; [7]) was 10. The “Velvetleaf plant response rating” value (velvetleaf; [8]) was 40, the “Plant response rating, Velvetleaf” value (velvetleaf; [9]) was 30 and the “Velvetleaf plant response rating” value (velvetleaf; [10]) was 0. The “Velvetleaf plant response rating” value (velvetleaf; Preemergence, 2000 g ai/ha, visual rating, 0 to 100 scale (0 no effect, 100 complete control)) was 10, the “Corn plant response rating” value (corn; [4]) was 30 and the “Plant response rating, Corn” value (corn; [5]) was 20. The “Plant response rating, Corn” value (corn; [6]) was 20, the “Plant response rating, Corn” value (corn; [7]) was 15 and the “Morningglory plant response rating” value (morningglory [1]; [4]) was 85. For the same compound, the “Plant response rating, Morningglory” value (morningglory [1]; [5]) was 85, the “Plant response rating, Morningglory” value (morningglory [1]; [6]) was 75 and the “Plant response rating, Morningglory” value (morningglory [1]; [7]) was 10. The “Surinam Grass plant response rating” value (Surinam grass; [4]) was 85, the “Plant response rating, Surinam Grass” value (Surinam grass; [5]) was 70 and the “Plant response rating, Surinam Grass” value (Surinam grass; [6]) was 60. The “Plant response rating, Surinam Grass” value (Surinam grass; [7]) was 10, the “Morningglory plant response rating” value (morningglory [2]; [8]) was 20 and the “Plant response rating, Morningglory” value (morningglory [2]; [9]) was 35. For the same compound, the “Morningglory plant response rating” value (morningglory [2]; [10]) was 0, the “Morningglory plant response rating” value (morningglory [2]; Preemergence, 2000 g ai/ha, 0 to 100 scale, 0 no effect, 100 complete control) was 15 and the “Lambsquarters plant response rating” value (lambsquarters; [4]) was 100. The “Plant response rating, Lambsquarters” value (lambsquarters; [5]) was 100, the “Plant response rating, Lambsquarters” value (lambsquarters; [6]) was 100 and the “Plant response rating, Lambsquarters” value (lambsquarters; [7]) was 100.
In the case of C=CCNC(=O)c1cccc(NC(=O)c2nn(C(C)(C)C)nc2CC)c1 [Compound 414], the “Plant response rating, Sunflower” value ([3]; 62 g ai/ha, scale 0 to 100) is reported as 0, the “Plant response rating (0 = no effect, 100 = complete control), Sunflower” value ([3]; 125 g ai/ha) is reported as 0 and the “Plant response rating, Sunflower” value ([3]; 500 g ai/ha, scale 0 to 100 (0 no effect, 100 complete control), visual, 12 to 14 days) is reported as 0. For the same compound, the “Plant response rating, Nutsedge, Yellow” value (yellow nutsedge; [11]) was 0, the “Plant response rating (0 = no effect, 100 = complete control), Nutsedge, Yellow” value (yellow nutsedge; 125 g ai/ha, preemergence) was 0 and the “Plant response rating, Nutsedge, Yellow” value (yellow nutsedge; [12]) was 20. The “Plant response rating, Cupgrass, Woolly” value (woolly cupgrass; [11]) was 0, the “Plant response rating (0 = no effect, 100 = complete control), Cupgrass, Woolly” value (woolly cupgrass; 125 g ai/ha, preemergence) was 80 and the “Plant response rating, Cupgrass, Woolly” value (woolly cupgrass; [13]) was 95. For the same compound, the “Plant response rating, Cupgrass, Woolly” value (woolly cupgrass; [12]) was 100, the “Plant response rating, Foxtail, Giant” value (giant foxtail; [11]) was 75 and the “Plant response rating (0 = no effect, 100 = complete control), Foxtail, Giant” value (giant foxtail; 125 g ai/ha, preemergence) was 95. The “Plant response rating, Foxtail, Giant” value (giant foxtail; [13]) was 100, the “Plant response rating, Foxtail, Giant” value (giant foxtail; [12]) was 100 and the “Plant response rating, Corn” value (corn; [11]) was 0. For the same compound, the “Plant response rating (0 = no effect, 100 = complete control), Corn” value (corn; 125 g ai/ha, preemergence) was 0, the “Plant response rating, Corn” value (corn; [13]) was 50 and the “Plant response rating, Corn” value (corn; [12]) was 80. The “Plant response rating, Morningglory” value (morningglory [1]; [11]) was 10, the “Plant response rating (0 = no effect, 100 = complete control), Morningglory” value (morningglory [1]; 125 g ai/ha, preemergence) was 55 and the “Plant response rating, Morningglory” value (morningglory [1]; [12]) was 95. For the same compound, the “Plant response rating, Surinam Grass” value (Surinam grass; [11]) was 0, the “Plant response rating (0 = no effect, 100 = complete control), Surinam Grass” value (Surinam grass; 125 g ai/ha, preemergence) was 80 and the “Plant response rating, Surinam Grass” value (Surinam grass; [12]) was 100. The “Plant response rating, Lambsquarters” value (lambsquarters; [11]) was 95, the “Plant response rating (0 = no effect, 100 = complete control), Lambsquarters” value (lambsquarters; 125 g ai/ha, preemergence) was 95 and the “Plant response rating, Lambsquarters” value (lambsquarters; [13]) was 95. For the same compound, the “Plant response rating, Lambsquarters” value (lambsquarters; [12]) was 100.
